Reference: patent US11786548B2, “Trace element compositions, methods of making and use” (priority 2020, dated 2023)
Several values for one entry are separate records, joined by “and”; a condition that tells them apart may be missing. Identical values can stand only once.

Experiment: Stability study of injectable trace element composition in parenteral nutrition admixtures (assay test for zinc, copper, selenium, manganese)
Assay type: physicochemical
Description: In order to establish stability data for parenteral nutrition admixed with the injectable compositions of trace elements, we conducted a stability study of injectable trace element composition (trace elements injectable composition, USP) in parenteral nutrition admixtures (assay test); a pH study of parenteral nutrition (PN) admixtures upon addition of injectable trace element composition (trace elements injectable composition, USP); a compatibility study of injectable trace element composition (trace elements injectable composition, USP) in parenteral nutrition admixtures; and a reduced inoculation antimicrobial effectiveness study for injectable trace element composition (trace elements injectable composition, USP) in parenteral nutrition admixtures. […]

Structure (SMILES) | Assay Day 0 | Assay Day 5 | Assay Day 7 | Assay Day 10 | Assay Day 14
O.O.O.O.O.O=S(=O)([O-])[O-].[Cu+2] [Copper, cupric sulfate pentahydrate] | 109.7% | 98.7% and 98.8% | 97.8% | 99.9% | 105.5% and 106.0%
O.O.O.O.O.O.O.O=S(=O)([O-])[O-].[Zn+2] [Zinc, zinc sulfate heptahydrate] | 96.5% and 98.5% | 93.9% and 94.4% | 93.8% and 96.5% | 97.0% and 96.2% | 96.0% and 96.3%
